According to ChEMBL document CHEMBL1201862, “PubChem BioAssay data set” (2004):
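Cells were grown in 96-well plates and exposed to each compound for 48 hours at five concentrations; endpoints were interpolated linearly between bracketing concentrations, or set to the highest concentration if not reached. GI50 is the concentration that inhibits growth by half.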 Activity calls are given as the source filed them. Rule as the data show it: active = GI50 up to about 1.1 µM and inactive = higher.

How the values were obtained:
Experiment in all cases: DTP human tumour cell line panel, 48 h
TK-10 = test system: TK-10
HOP-92 = test system: HOP-92
SF-539 = test system: SF-539
SF-268 = test system: SF-268
COLO 205 = test system: COLO 205
MDA-MB-231 = test system: MDA-MB-231
CAKI-1 = test system: CAKI-1
M14 = test system: M14
HT-29 = test system: HT-29
UACC-257 = test system: UACC-257
SNB-75 = test system: SNB-75
LOX IMVI = test system: LOX IMVI
OVCAR-4 = test system: OVCAR-4
MDA-MB-435 = test system: MDA-MB-435
A549 = test system: A549
786-0 = test system: 786-0
OVCAR-5 = test system: OVCAR-5
OVCAR-8 = test system: OVCAR-8
Hs-578T = test system: Hs-578T
ACHN = test system: ACHN
UACC-62 = test system: UACC-62
NCI/ADR-RES = test system: NCI/ADR-RES
Malme-3M = test system: Malme-3M
K562 = test system: K562
SF-295 = test system: SF-295
CCRF-CEM = test system: CCRF-CEM
T47D = test system: T47D
DU-145 = test system: DU-145
U-251 = test system: U-251
HCT-15 = test system: HCT-15
SN12C = test system: SN12C
A498 = test system: A498
PC-3 = test system: PC-3
SNB-19 = test system: SNB-19
NCI-H460 = test system: NCI-H460
NCI-H522 = test system: NCI-H522
SK-MEL-2 = test system: SK-MEL-2
KM12 = test system: KM12
BT-549 = test system: BT-549
MOLT-4 = test system: MOLT-4
UO-31 = test system: UO-31
SK-MEL-28 = test system: SK-MEL-28
SK-MEL-5 = test system: SK-MEL-5
RXF 393 = test system: RXF 393
EKVX = test system: EKVX
IGROV-1 = test system: IGROV-1
HCT-116 = test system: HCT-116
RPMI-8226 = test system: RPMI-8226
NCI-H226 = test system: NCI-H226
SW-620 = test system: SW-620
MDA-N = test system: MDA-N
HL-60 = test system: HL-60
HOP-62 = test system: HOP-62
SK-OV-3 = test system: SK-OV-3
SR = test system: SR
MCF7 = test system: MCF7
OVCAR-3 = test system: OVCAR-3
NCI-H23 = test system: NCI-H23
HCC 2998 = test system: HCC 2998

CCC1=C(CC2NCCc3cc(OC)c(OC)cc32)CC2c3ccccc3CCN2C1 (stereo unspecified)
GI50 (TK-10): 26.7 µM (inactive)
GI50 (HOP-92): 12.8 µM (inactive)
GI50 (SF-539): 9.55 µM (inactive)
GI50 (SF-268): 31.5 µM (inactive)
GI50 (COLO 205): 10.2 µM (inactive)
GI50 (MDA-MB-231): 16.8 µM (inactive)
GI50 (CAKI-1): 22.4 µM (inactive)
GI50 (M14): 14.3 µM (inactive)
GI50 (HT-29): 5.56 µM (inactive)
GI50 (UACC-257): 18.1 µM (inactive)
GI50 (SNB-75): 19.8 µM (inactive)
GI50 (LOX IMVI): 13.5 µM (inactive)
GI50 (OVCAR-4): 22.5 µM (inactive)
GI50 (MDA-MB-435): 13.1 µM (inactive)
GI50 (A549): 26.4 µM (inactive)
GI50 (786-0): 14 µM (inactive)
GI50 (OVCAR-5): 12.4 µM (inactive)
GI50 (OVCAR-8): 37.5 µM (inactive)
GI50 (Hs-578T): 15.4 µM (inactive)
GI50 (ACHN): 31.5 µM (inactive)
GI50 (UACC-62): 15.5 µM (inactive)
GI50 (NCI/ADR-RES): 29.6 µM (inactive)
GI50 (Malme-3M): 14.6 µM (inactive)
GI50 (K562): 10.1 µM (inactive)
GI50 (SF-295): 20.4 µM (inactive)
GI50 (CCRF-CEM): 10.4 µM (inactive)
GI50 (T47D): 20.7 µM (inactive)
GI50 (DU-145): 38.5 µM (inactive)
GI50 (U-251): 13.7 µM (inactive)
GI50 (HCT-15): 37.9 µM
GI50 (SN12C): 21.7 µM (inactive)
GI50 (A498): 13.2 µM (inactive)
GI50 (PC-3): 16.2 µM (inactive)
GI50 (SNB-19): 36.9 µM (inactive)
GI50 (NCI-H460): 12.6 µM (inactive)
GI50 (NCI-H522): 14.8 µM (inactive)
GI50 (SK-MEL-2): 15.8 µM (inactive)
GI50 (KM12): 23.7 µM (inactive)
GI50 (BT-549): 49.4 µM (inactive)
GI50 (MOLT-4): 15.3 µM (inactive)
GI50 (UO-31): 15 µM (inactive)
GI50 (SK-MEL-28): 13.9 µM (inactive)
GI50 (SK-MEL-5): 14.8 µM (inactive)
GI50 (RXF 393): 19.8 µM (inactive)
GI50 (EKVX): 22.2 µM (inactive)
GI50 (IGROV-1): 21.2 µM (inactive)
GI50 (HCT-116): 8.55 µM (inactive)
GI50 (RPMI-8226): 13.8 µM (inactive)
GI50 (NCI-H226): 19 µM (inactive)
GI50 (SW-620): 13.8 µM (inactive)
GI50 (MDA-N): 14 µM (inactive)
GI50 (HL-60): 9.06 µM (inactive)
GI50 (HOP-62): 21.7 µM (inactive)
GI50 (SK-OV-3): > 100 µM (inactive)
GI50 (SR): 10.1 µM (inactive)
GI50 (MCF7): 18.7 µM (inactive)
GI50 (OVCAR-3): 33.4 µM (inactive)

Cc1c([N+](=O)[O-])ccc2c(NCCCN(C)C)ccnc12
GI50 (TK-10): 27.5 µM (inactive)
GI50 (HOP-92): 16.5 µM (inactive)
GI50 (SF-539): 16.8 µM (inactive)
GI50 (SF-268): 37 µM (inactive)
GI50 (COLO 205): 12.2 µM (inactive)
GI50 (MDA-MB-231): 23 µM (inactive)
GI50 (CAKI-1): 35.6 µM (inactive)
GI50 (M14): 16.3 µM (inactive)
GI50 (HT-29): 14.2 µM (inactive)
GI50 (UACC-257): 17.2 µM (inactive)
GI50 (SNB-75): 25.4 µM (inactive)
GI50 (LOX IMVI): 15.7 µM (inactive)
GI50 (OVCAR-4): 17.4 µM (inactive)
GI50 (MDA-MB-435): 17.5 µM (inactive)
GI50 (A549): 19.8 µM (inactive)
GI50 (786-0): 26.8 µM (inactive)
GI50 (OVCAR-5): 29.6 µM (inactive)
GI50 (OVCAR-8): 25.2 µM (inactive)
GI50 (Hs-578T): 24 µM (inactive)
GI50 (ACHN): 30.8 µM (inactive)
GI50 (UACC-62): 20.7 µM (inactive)
GI50 (NCI/ADR-RES): 28.2 µM (inactive)
GI50 (Malme-3M): 17.2 µM (inactive)
GI50 (K562): 48.6 µM (inactive)
GI50 (SF-295): 22.2 µM (inactive)
GI50 (CCRF-CEM): > 100 µM (inactive)
GI50 (T47D): 25.4 µM (inactive)
GI50 (DU-145): 33 µM (inactive)
GI50 (U-251): 27.4 µM (inactive)
GI50 (HCT-15): 17.3 µM
GI50 (SN12C): 29.1 µM (inactive)
GI50 (A498): 34 µM (inactive)
GI50 (PC-3): 16.4 µM (inactive)
GI50 (NCI-H460): 16.3 µM (inactive)
GI50 (NCI-H522): 17.3 µM (inactive)
GI50 (SK-MEL-2): 17.1 µM (inactive)
GI50 (KM12): 16.7 µM (inactive)
GI50 (BT-549): 17.9 µM (inactive)
GI50 (MOLT-4): > 100 µM (inactive)
GI50 (UO-31): 13.7 µM (inactive)
GI50 (SK-MEL-28): 25.5 µM (inactive)
GI50 (SK-MEL-5): 16 µM (inactive)
GI50 (RXF 393): 23.9 µM (inactive)
GI50 (IGROV-1): 22.2 µM (inactive)
GI50 (HCT-116): 15.2 µM (inactive)
GI50 (RPMI-8226): 67.6 µM (inactive)
GI50 (NCI-H226): 30.4 µM (inactive)
GI50 (SW-620): 17.8 µM (inactive)
GI50 (MDA-N): 15 µM (inactive)
GI50 (HL-60): > 100 µM (inactive)
GI50 (HOP-62): 31.1 µM (inactive)
GI50 (SK-OV-3): 39.8 µM (inactive)
GI50 (SR): 29.2 µM (inactive)
GI50 (NCI-H23): 19 µM (inactive)
GI50 (MCF7): 15.9 µM (inactive)
GI50 (OVCAR-3): 21 µM (inactive)

Oc1cc(N2CCCC2)ccc1/C=N/N1C(=S)N(c2ccccc2)C(=N\c2ccccc2)/C1=N/c1ccccc1
GI50 (TK-10): 75 µM (inactive)
GI50 (HOP-92): 63.2 µM (inactive)
GI50 (SF-539): > 100 µM (inactive)
GI50 (SF-268): > 100 µM (inactive)
GI50 (COLO 205): > 100 µM (inactive)
GI50 (MDA-MB-231): 48 µM (inactive)
GI50 (CAKI-1): > 100 µM (inactive)
GI50 (M14): 34.2 µM (inactive)
GI50 (HT-29): > 100 µM (inactive)
GI50 (UACC-257): > 100 µM (inactive)
GI50 (MDA-MB-435): > 100 µM (inactive)
GI50 (A549): > 100 µM (inactive)
GI50 (786-0): > 100 µM (inactive)
GI50 (OVCAR-5): > 100 µM (inactive)
GI50 (OVCAR-8): > 100 µM (inactive)
GI50 (Hs-578T): 60.4 µM (inactive)
GI50 (ACHN): > 100 µM (inactive)
GI50 (UACC-62): 97.7 µM (inactive)
GI50 (NCI/ADR-RES): > 100 µM (inactive)
GI50 (Malme-3M): > 100 µM (inactive)
GI50 (K562): > 100 µM (inactive)
GI50 (SF-295): 94.4 µM (inactive)
GI50 (T47D): > 100 µM (inactive)
GI50 (DU-145): > 100 µM (inactive)
GI50 (U-251): 31.2 µM (inactive)
GI50 (HCT-15): > 100 µM
GI50 (SN12C): > 100 µM (inactive)
GI50 (PC-3): > 100 µM (inactive)
GI50 (SNB-19): 51.4 µM (inactive)
GI50 (NCI-H460): > 100 µM (inactive)
GI50 (NCI-H522): 23.4 µM (inactive)
GI50 (SK-MEL-2): > 100 µM (inactive)
GI50 (KM12): > 100 µM (inactive)
GI50 (BT-549): > 100 µM (inactive)
GI50 (MOLT-4): > 100 µM (inactive)
GI50 (UO-31): > 100 µM (inactive)
GI50 (SK-MEL-28): > 100 µM (inactive)
GI50 (SK-MEL-5): 73.3 µM (inactive)
GI50 (RXF 393): 14.2 µM (inactive)
GI50 (EKVX): > 100 µM (inactive)
GI50 (IGROV-1): > 100 µM (inactive)
GI50 (HCT-116): 44.6 µM (inactive)
GI50 (RPMI-8226): > 100 µM (inactive)
GI50 (NCI-H226): 58.6 µM (inactive)
GI50 (SW-620): 87.9 µM (inactive)
GI50 (MDA-N): > 100 µM (inactive)
GI50 (HOP-62): 35.2 µM (inactive)
GI50 (SK-OV-3): 99.8 µM (inactive)
GI50 (SR): > 100 µM (inactive)
GI50 (HCC 2998): > 100 µM (inactive)
GI50 (NCI-H23): 87.7 µM (inactive)
GI50 (MCF7): 70.1 µM (inactive)
GI50 (OVCAR-3): > 100 µM (inactive)
